The target of this test is T1, Dimer of Gag-Pol polyprotein [489-587] (Human immunodeficiency virus 1, UniProt P04585).
T1 construct: 489-587
Kind of test: Protease Inhibition Assay. The following applies: pH 5.5; 30 °C. The method, then:
Sensitivity of HIV-1 protease activity to protease inhibitors was determined by a peptide substrate cleavage assay. Protease products were analyzed on a reverse-phase high-pressure liquid chromatograph.

Molecules are shown by their SMILES.

With `CCC(C)[C@H](NC(=O)[C@H](Cc1ccccc1)C[C@H](O)[C@H](Cc1ccccc1)NC(=O)OC(C)(C)C)C(=O)N[C@@H](Cc1ccccc1)C(N)=O` (stereo partly drawn) [tert-butyl N-[(2S,3S,5R)-5-benzyl-5-{[(1S,2S)-1-{[(1S)-1-carbamoyl-2-phenylethyl]carbamoyl}-2-methylbutyl]carbamoyl}-3-hydroxy-1-phenylpentan-2-yl]carbamate], inhibition was half-maximal at 0.25 nM (IC50).
`CC(C)C[C@H](NC(=O)[C@H](Cc1ccccc1)C[C@H](O)[C@H](Cc1ccccc1)NC(=O)OC(C)(C)C)C(=O)N[C@@H](Cc1ccccc1)C(N)=O` [Hydroxyethylene dipeptide isostere] gave an IC50 of 0.6 nM.

For the origin of these results see BindingDB's records for doi:10.1021/jm00113a025 (Merck Sharp and Dohme Research Laboratories, 1991).
